Assay results reported in the NIST ThermoML archive (doi:10.1016/j.jct.2018.05.027).

Tests used:
[1] = xn = mol fraction of the nth substance listed; settings: Liquid, Vibrating wire viscometry, x1 = 1
[2] = Liquid

CCC(C)O (centres undefined) [butan-2-ol] + Cc1ccc(C)c(C)c1
viscosity [mPa·s], [1]
Settings | 293.15 K | 298.15 K | 313.15 K | 333.15 K | 353.15 K
100 kPa | 3.767 | 3.102 | 1.839 | 1.007 | 0.6198
1000 kPa | 3.813 | 3.123 | 1.862 | 1.023 | 0.6273
5000 kPa | 3.978 | 3.28 | 1.947 | 1.078 | 0.6577
10000 kPa | 4.235 | 3.462 | 2.041 | 1.133 | 0.6999
20000 kPa | 4.696 | 3.873 | 2.262 | 1.254 | 0.7717
30000 kPa | 5.159 | 4.253 | 2.503 | 1.372 | 0.8354
40000 kPa | 5.693 | 4.697 | 2.734 | 1.491 | 0.9088
50000 kPa | 6.274 | 5.142 | 2.99 | 1.624 | 0.9898
60000 kPa | 6.831 | 5.553 | 3.237 | 1.759 | 1.07
70000 kPa | 7.377 | 6.044 | 3.558 | 1.905 | 1.151
80000 kPa | 8.056 | 6.544 | 3.841 | 2.081 | 1.242
100000 kPa | 9.598 | 7.646 | 4.456 | 2.427 | 1.444
120000 kPa | 11.31 | 9.053 | 5.179 | 2.716 | 1.644
140000 kPa | 13.38 | 10.43 | 5.933 | 3.099 | 1.845

CCC(C)O (centres undefined) [butan-2-ol]
viscosity [mPa·s], [2]
Settings | 293.15 K | 298.15 K | 313.15 K | 333.15 K | 353.15 K
100 kPa, Concentric cylinders viscometry | 3.744 | – | 1.832 | 1.011 | 0.6218
100 kPa, Vibrating wire viscometry | 3.767 | 3.102 | 1.839 | 1.007 | 0.6198
1000 kPa, Vibrating wire viscometry | 3.813 | 3.123 | 1.862 | 1.023 | 0.6273
5000 kPa, Vibrating wire viscometry | 3.978 | 3.28 | 1.947 | 1.078 | 0.6577
10000 kPa, Vibrating wire viscometry | 4.235 | 3.462 | 2.041 | 1.133 | 0.6999
20000 kPa, Vibrating wire viscometry | 4.696 | 3.873 | 2.262 | 1.254 | 0.7717
30000 kPa, Vibrating wire viscometry | 5.159 | 4.253 | 2.503 | 1.372 | 0.8354
40000 kPa, Vibrating wire viscometry | 5.693 | 4.697 | 2.734 | 1.491 | 0.9088
50000 kPa, Vibrating wire viscometry | 6.274 | 5.142 | 2.99 | 1.624 | 0.9898
60000 kPa, Vibrating wire viscometry | 6.831 | 5.553 | 3.237 | 1.759 | 1.07
70000 kPa, Vibrating wire viscometry | 7.377 | 6.044 | 3.558 | 1.905 | 1.151
80000 kPa, Vibrating wire viscometry | 8.056 | 6.544 | 3.841 | 2.081 | 1.242
100000 kPa, Vibrating wire viscometry | 9.598 | 7.646 | 4.456 | 2.427 | 1.444
120000 kPa, Vibrating wire viscometry | 11.31 | 9.053 | 5.179 | 2.716 | 1.644
140000 kPa, Vibrating wire viscometry | 13.38 | 10.43 | 5.933 | 3.099 | 1.845
